≈ marks a conversion by molar mass, not a printed value.
Key:
[1] = test system: Acinetobacter baumannii NCTC 13420; assay: MIC, broth microdilution (CLSI) versus planktonic bacteria; assay type: cell-based; settings: NCTC13420; Acinetobacter baumannii NCTC 13420; 16-20 h; mode of three independent experiments; read-out: MIC, Ab NCTC 13420
[2] = test system: Acinetobacter baumannii ATCC 19606; assay: as above; assay type: cell-based; settings: ATCC19606; Acinetobacter baumannii ATCC 19606; 16-20 h; mode of three independent experiments; read-out: MIC, Ab ATCC 19606
[3] = test system: Enterobacter cloacae NCTC 13406; assay: as above; assay type: cell-based; settings: NCTC13406; Enterobacter cloacae NCTC 13406; 16-20 h; mode of three independent experiments; read-out: MIC, Ecl NCTC 13406
[4] = test system: Escherichia coli ATCC 25922; assay: as above; assay type: cell-based; settings: ATCC25922; Escherichia coli ATCC 25922; 16-20 h; mode of three independent experiments; read-out: MIC, Ec ATCC 25922
E. coli ATCC BAA-2452 = assay: as above; assay type: cell-based; settings: Escherichia coli ATCC BAA-2452; 16-20 h; mode of three independent experiments; read-out: MIC, Ec ATCC BAA 2452
E. coli NCTC 13476 = assay: as above; assay type: cell-based; settings: NCTC13476; Escherichia coli NCTC 13476; 16-20 h; mode of three independent experiments; read-out: MIC, Ec NCTC 13476
E. coli MG1655 = assay: as above; assay type: cell-based, Escherichia coli; settings: Escherichia coli, MG1655, read-out: MIC, Ec MG1655 WT
[5] = test system: Haemophilus influenzae ATCC 49247; assay: as above; assay type: cell-based; settings: ATCC49247; Haemophilus influenzae ATCC 49247; 16-20 h; mode of three independent experiments; read-out: MIC, Hi ATCC 49247
[6] = test system: Mycobacterium smegmatis ATCC 19420; assay: as above; assay type: cell-based; settings: Mycolicibacterium smegmatis, ATCC19420, 16-20 h, mode of three independent experiments, read-out: MIC, Ms ATCC 19420
[7] = test system: Neisseria meningitidis ATCC 13090; assay: as above; assay type: cell-based; settings: ATCC13090, 16-20 h, mode of three independent experiments
[8] = test system: Pseudomonas aeruginosa ATCC 27853; assay: as above; assay type: cell-based; settings: ATCC27853; Pseudomonas aeruginosa ATCC 27853; 16-20 h; mode of three independent experiments; read-out: MIC, Pa ATCC 27853
[9] = test system: Staphylococcus aureus ATCC 29213; assay: as above; assay type: cell-based; settings: ATCC29213; Staphylococcus aureus ATCC 29213; 16-20 h; mode of three independent experiments; read-out: MIC, Sa ATCC 29213
[10] = test system: Streptococcus pneumoniae ATCC 49619; assay: as above; assay type: cell-based; settings: ATCC49619; Streptococcus pneumoniae ATCC 49619; 16-20 h; mode of three independent experiments; read-out: MIC, Sp ATCC 49619
E. coli MG1655 S83L = assay type: cell-based, Escherichia coli; settings: compared to the isogenic parent strain E. coli MG1655; S83L mutation on DNA gyrase subunit GyrA
E. coli MG1655 D87G = assay type: cell-based, Escherichia coli; settings: compared to the isogenic parent strain E. coli MG1655; D87G mutation on DNA gyrase subunit GyrA
[11] = test system: human hepatic cell line (HepG2 ATCC HB-8065); assay: Human cell viability assay (CellTiter-Glo); settings: Homo sapiens, HepG2, 24 h, read-out: IC50 (μg/mL) HepG2

Row | SMILES | MIC [1] [µg/mL] | MIC [2] [µg/mL] | MIC [3] [µg/mL] | MIC [4] [µg/mL] | MIC (E. coli ATCC BAA-2452) [µg/mL] | MIC (E. coli NCTC 13476) [µg/mL] | MIC (E. coli MG1655) [µg/mL] | MIC [5] [µg/mL] | MIC [6] [µg/mL] | MIC [7] [µg/mL] | MIC [8] [µg/mL] | MIC [9] [µg/mL] | MIC [10] [µg/mL] | Fold increase in MIC, E. coli MG1655 S83L (E. coli MG1655 S83L) [fold] | Fold increase in MIC, E. coli MG1655 D87G (E. coli MG1655 D87G) [fold] | IC50 [11] [µg/mL]
1 | COc1ccc2ccc(=O)n(CCN[C@H]3CC[C@H]4[C@@H](C3)OC(=O)N4c3ccc4c(n3)NC(=O)CO4)c2n1 [Compound 4, 1-(2-{[(3aS,6S,7aR)-2-oxo-3-{3-oxo-2H,3H,4H-pyrido[3,2-b][1,4]oxazin-6-yl}-octahydro-1,3-benzoxazol-6-yl]amino}ethyl)-7-methoxy-1,2-dihydro-1,8-naphthyridin-2-one] | < 1 | < 1 | < 1 | < 1 | < 1 | < 1 | < 1 | 1 to 10 (≈ 1.97 to 19.7 µM) | < 1 | < 1 | 1 to 10 (≈ 1.97 to 19.7 µM) | < 1 | < 1 | 1 | 1 | 10 to 100 (≈ 19.7 to 197 µM)
2 | NS(=O)(=O)c1ccc(Oc2ccc3ccc(=O)n(CCN[C@@H]4CC[C@@H]5[C@@H](C4)OC(=O)N5c4ccc5c(n4)NC(=O)CO5)c3n2)cc1 [Compound 8, 4-{[8-(2-{[(3aR,6R,7aR)-2-oxo-3-{3-oxo-2H,3H,4H-pyrido[3,2-b][1,4]oxazin-6-yl}-octahydro-1,3-benzoxazol-6-yl]amino}ethyl)-7-oxo-7,8-dihydro-1,8-naphthyridin-2-yl]oxy}benzene-1-sulphonamide] | 10 to 100 (≈ 15.4 to 154 µM) |  | 10 to 100 (≈ 15.4 to 154 µM) | 1 to 10 (≈ 1.54 to 15.4 µM) |  |  |  | < 1 | < 1 |  | 10 to 100 (≈ 15.4 to 154 µM) | < 1 | 1 to 10 (≈ 1.54 to 15.4 µM) |  |  | 10 to 100 (≈ 15.4 to 154 µM)
3 | NCCOc1ccc2ccc(=O)n(CCN[C@H]3CC[C@H]4[C@@H](C3)OC(=O)N4c3ccc4c(n3)NC(=O)CO4)c2c1 [Compound 9, 1-(2-{[(3aS,6S,7aR)-2-oxo-3-{3-oxo-2H,3H,4H-pyrido[3,2-b][1,4]oxazin-6-yl}-octahydro-1,3-benzoxazol-6-yl]amino}ethyl)-7-(2-aminoethoxy)-1,2-dihydroquinolin-2-one] | > 100 |  | > 100 | 1 to 10 (≈ 1.87 to 18.7 µM) |  |  |  | 10 to 100 (≈ 18.7 to 187 µM) | > 100 |  | 1 to 10 (≈ 1.87 to 18.7 µM) | 1 to 10 (≈ 1.87 to 18.7 µM) | 10 to 100 (≈ 18.7 to 187 µM) |  |  | > 100
4 | NCCOc1ccc2ccc(=O)n(CCN[C@H]3CC[C@H]4[C@@H](C3)OC(=O)N4c3ccc4c(n3)NC(=O)CO4)c2n1 [Compound 10, 1-(2-{[(3aS,6S,7aR)-2-oxo-3-{3-oxo-2H,3H,4H-pyrido[3,2-b][1,4]oxazin-6-yl}-octahydro-1,3-benzoxazol-6-yl]amino}ethyl)-7-(2-aminoethoxy)-1,2-dihydro-1,8-naphthyridin-2-one] | > 100 |  | > 100 | 1 to 10 (≈ 1.87 to 18.7 µM) |  |  |  | 10 to 100 (≈ 18.7 to 187 µM) | > 100 |  | 1 to 10 (≈ 1.87 to 18.7 µM) | 10 to 100 (≈ 18.7 to 187 µM) | 10 to 100 (≈ 18.7 to 187 µM) |  |  | > 100
5 | N#Cc1cccc(-c2cccc(CN[C@H]3CC[C@H]4[C@@H](C3)OC(=O)N4c3ccc4c(n3)NC(=O)CO4)c2O)n1 [Compound 18, 6-[3-({[(3aS,6S,7aR)-2-oxo-3-{3-oxo-2H,3H,4H-pyrido[3,2-b][1,4]oxazin-6-yl}-octahydro-1,3-benzoxazol-6-yl]amino}methyl)-2-hydroxyphenyl]pyridine-2-carbonitrile] | < 1 | < 1 | < 1 | < 1 | 1 to 10 (≈ 1.95 to 19.5 µM) | 1 to 10 (≈ 1.95 to 19.5 µM) | < 1 | 1 to 10 (≈ 1.95 to 19.5 µM) |  | < 1 | 1 to 10 (≈ 1.95 to 19.5 µM) | < 1 | < 1 | 2 | 1 | 1 to 10 (≈ 1.95 to 19.5 µM)
6 | N#Cc1ccc2ccc(=O)n(CCN(CCN)[C@H]3CC[C@H]4[C@@H](C3)OC(=O)N4c3ccc4c(n3)NC(=O)CO4)c2c1 [Compound 58, 1-(2-{[(3aS,6S,7aR)-2-oxo-3-{3-oxo-2H,3H,4H-pyrido[3,2-b][1,4]oxazin-6-yl}-octahydro-1,3-benzoxazol-6-yl](2-aminoethyl)amino}ethyl)-2-oxo-1,2-dihydroquinoline-7-carbonitrile] | > 100 |  | > 100 | 10 to 100 (≈ 18.4 to 184 µM) |  |  |  | > 100 | 1 to 10 (≈ 1.84 to 18.4 µM) |  | 1 to 10 (≈ 1.84 to 18.4 µM) | < 1 | > 100 |  |  | > 100
